Measured values reported in article PMC6001238, “Iterative Chemical Engineering of Vancomycin Leads to Novel Vancomycin Analogs With a High in Vitro Therapeutic Index” (Frontiers in Microbiology, 2018).
Converted amounts (≈) assume the structure as drawn.

Experiments:
S. aureus VRSA = experiment: MIC, broth microdilution, vancomycin-resistant S. aureus (VRSA); format: cell-based, Staphylococcus aureus; settings: for MIC: Staphylococcus aureus VRSA, read-out: MIC; for MIC-fold improvement vs. vancomycin: VRSA, ratio of MIC of vancomycin and MIC of analogue
Experimental: (§1) The minimum inhibitory concentration (MIC) was determined using the broth microdilution method according to the antimicrobial susceptibility testing standards of the clinical and laboratory standards institute ([Clinical and Laboratory Standards Institute [CLSI], 2012]). Ultrapure water and non-inoculated broth were used as controls. In one case, a final concentration of 10 μM vancomycin was included with the vancomycin analog or control antibiotic.

E. faecalis VRE 29 = experiment: MIC, broth microdilution, vancomycin-resistant E. faecalis VRE 29 (VanA); format: cell-based, Enterococcus faecalis; settings: for MIC: Enterococcus faecalis VRE 29 (vancomycin-resistant), read-out: MIC; for MIC-fold improvement vs. vancomycin: VRE 29, ratio of MIC of vancomycin and MIC of analogue
Experimental: as §1

S. aureus VISA/HIP5827 = experiment: MIC, broth microdilution, vancomycin-intermediate S. aureus VISA HIP5827; format: cell-based, Staphylococcus aureus; settings: for MIC: Staphylococcus aureus VISA/HIP5827, read-out: MIC; for MIC-fold improvement vs. vancomycin: VISA/HIP5827, ratio of MIC of vancomycin and MIC of analogue
Experimental: as §1

E. faecalis VRE 53 = experiment: MIC, broth microdilution, vancomycin-resistant E. faecalis VRE 53 (VanA); format: cell-based, Enterococcus faecalis; settings: for MIC: Enterococcus faecalis VRE 53 (vancomycin-resistant), read-out: MIC; for MIC-fold improvement vs. vancomycin: VRE 53, ratio of MIC of vancomycin and MIC of analogue
Experimental: as §1

E. faecalis VSE 1 = experiment: MIC, broth microdilution, vancomycin-sensitive E. faecalis (VSE 1); format: cell-based, Enterococcus faecalis; settings: for MIC: Enterococcus faecalis VSE 1 (vancomycin-sensitive), read-out: MIC; for MIC-fold improvement vs. vancomycin: VSE 1, ratio of MIC of vancomycin and MIC of analogue
Experimental: as §1

E. faecalis VRE 37 = experiment: MIC, broth microdilution, vancomycin-resistant E. faecalis VRE 37 (VanA); format: cell-based, Enterococcus faecalis; settings: for MIC: Enterococcus faecalis VRE 37 (vancomycin-resistant), read-out: MIC; for MIC-fold improvement vs. vancomycin: VRE 37, ratio of MIC of vancomycin and MIC of analogue
Experimental: as §1

[1] = tested on: human cervix carcinoma (HeLa) cells; experiment: Cytostatic activity, HeLa cell proliferation; format: cell-based; settings: mean ± SD of three experiments; highest concentration tested 250 µM; 4 days; read-out: Toxicity (IC50) HeLa
Experimental: (§2) Murine leukemia (L1210), human T-lymphocyte (CEM) and the human cervix carcinoma (HeLa) cell line were suspended at 300,000–500,000 cells/mL of culture medium, and 100 μL of a cell suspension was added to 100 μL of an appropriate dilution of the test compounds in wells of 96-well microtiter plates. After incubation at 37°C for 2 (L1210), 3 (CEM), or 4 (HeLa) days, the cell number was determined using a Coulter counter. The IC50 was defined per cell type as the compound concentration required to inhibit cell proliferation by 50% compared to the negative control ([Glowacka et al., 2017]).

[2] = tested on: Murine leukemia (L1210) cells; experiment: Cytostatic activity, L1210 cell proliferation; format: cell-based; settings: mean ± SD of three experiments; highest concentration tested 250 µM; 2 days; read-out: Toxicity (IC50) L1210
Experimental: as §2

[3] = tested on: L1210, CEM and HeLa cell lines; experiment: Cytostatic activity, average or summary over L1210, CEM and HeLa; format: cell-based; settings: average of L1210, CEM and HeLa; read-out: Toxicity (IC50) Average
Experimental: as §2

E. faecalis VRE 6 = experiment: MIC, broth microdilution, vancomycin-resistant E. faecalis VRE 6 (VanA); format: cell-based, Enterococcus faecalis; settings: for MIC: Enterococcus faecalis VRE 6 (vancomycin-resistant), read-out: MIC; for MIC-fold improvement vs. vancomycin: VRE 6, ratio of MIC of vancomycin and MIC of analogue
Experimental: as §1

[4] = tested on: human T-lymphocyte (CEM) cells; experiment: Cytostatic activity, CEM cell proliferation; format: cell-based; settings: mean ± SD of three experiments; highest concentration tested 250 µM; 3 days; read-out: Toxicity (IC50) CEM
Experimental: as §2

[5] = tested on: S. aureus VSSA (ATCC 6538); experiment: MIC, broth microdilution, vancomycin-sensitive S. aureus (VSSA/MSSA, ATCC 6538); format: cell-based, Staphylococcus aureus; settings: for MIC: Staphylococcus aureus VSSA, read-out: MIC; for MIC-fold improvement vs. vancomycin: VSSA, ratio of MIC of vancomycin and MIC of analogue
Experimental: as §1

MRSA KS6 = experiment: MIC, broth microdilution, MRSA KS6; format: cell-based, Staphylococcus aureus; settings: for MIC-fold improvement vs. vancomycin: MRSA KS6, ratio of MIC of vancomycin and MIC of analogue; for MIC: Staphylococcus aureus MRSA KS6, read-out: MIC
Experimental: as §1

MRSA KS1 = experiment: MIC, broth microdilution, MRSA KS1; format: cell-based, Staphylococcus aureus; settings: for MIC-fold improvement vs. vancomycin: MRSA KS1, ratio of MIC of vancomycin and MIC of analogue; for MIC: Staphylococcus aureus MRSA KS1, read-out: MIC
Experimental: as §1

MRSA KS89 = experiment: MIC, broth microdilution, MRSA KS89; format: cell-based, Staphylococcus aureus; settings: for MIC-fold improvement vs. vancomycin: MRSA KS8, ratio of MIC of vancomycin and MIC of analogue; for MIC: Staphylococcus aureus MRSA KS8, read-out: MIC
Experimental: as §1

MRSA KS2 = experiment: MIC, broth microdilution, MRSA KS2; format: cell-based, Staphylococcus aureus; settings: for MIC-fold improvement vs. vancomycin: MRSA KS2, ratio of MIC of vancomycin and MIC of analogue; for MIC: Staphylococcus aureus MRSA KS2, read-out: MIC
Experimental: as §1

MIC (S. aureus VRSA) | MIC-fold improvement vs. vancomycin (S. aureus VRSA) | MIC (E. faecalis VRE 29) | MIC-fold improvement vs. vancomycin (E. faecalis VRE 29) | MIC (S. aureus VISA/HIP5827) | MIC-fold improvement vs. vancomycin (S. aureus VISA/HIP5827) | MIC (E. faecalis VRE 53) | MIC-fold improvement vs. vancomycin (E. faecalis VRE 53) | MIC (E. faecalis VSE 1) | MIC-fold improvement vs. vancomycin (E. faecalis VSE 1) | MIC (E. faecalis VRE 37) | MIC (E. faecalis VRE 6) | MIC-fold improvement vs. vancomycin (E. faecalis VRE 6) | MIC [5] | MIC-fold improvement vs. vancomycin [5] | MIC-fold improvement vs. vancomycin (MRSA KS6) | SMILES | IC50 [1] | IC50 [2] | IC50 [3] | IC50 [4] | also measured
25 µM (≈ 40.6 µg/mL) | 4 | 25 µM (≈ 40.6 µg/mL) | 16 | 1.56 µM (≈ 2.53 µg/mL) | 4 | 25 µM (≈ 40.6 µg/mL) | 16 | 0.78 µM (≈ 1.27 µg/mL) | 2 | 25 µM (≈ 40.6 µg/mL) | 6.25 µM (≈ 10.1 µg/mL) | 32 | 0.78 µM (≈ 1.27 µg/mL) | 1 | 1 | CN[C@H](CC(C)C)C(=O)N[C@H]1C(=O)N[C@@H](CC(N)=O)C(=O)N[C@H]2C(=O)N[C@H]3C(=O)N[C@H](C(=O)N[C@H](C(=O)NCC(=O)Nc4c(C)cc(C)cc4C)c4cc(O)cc(O)c4-c4cc3ccc4O)[C@H](O)c3ccc(c(Cl)c3)Oc3cc2cc(c3O[C@@H]2O[C@H](CO)[C@@H](O)[C@H](O)[C@H]2O[C@H]2C[C@](C)(N)[C@H](O)[C@H](C)O2)Oc2ccc(cc2Cl)[C@H]1O [Vanc-9] | 83 ± 5 µM | > 250 µM | 191 µM | 240 ± 14 µM | MIC (MRSA KS6): 0.78 µM (≈ 1.27 µg/mL); MIC-fold improvement vs. vancomycin (MRSA KS1): 1; MIC (MRSA KS1): 0.78 µM (≈ 1.27 µg/mL); MIC-fold improvement vs. vancomycin (MRSA KS89): 1; MIC (MRSA KS89): 0.78 µM (≈ 1.27 µg/mL); MIC-fold improvement vs. vancomycin (MRSA KS2): 1; MIC (MRSA KS2): 0.78 µM (≈ 1.27 µg/mL)
12.5 µM (≈ 20 µg/mL) | 8 | 12.5 µM (≈ 20 µg/mL) | 32 | 0.78 µM (≈ 1.25 µg/mL) | 8 | 12.5 µM (≈ 20 µg/mL) | 32 | 0.78 µM (≈ 1.25 µg/mL) | 2 | 12.5 µM (≈ 20 µg/mL) | 6.25 µM (≈ 10 µg/mL) | 32 | 0.78 µM (≈ 1.25 µg/mL) | 1 | 1 | CN[C@H](CC(C)C)C(=O)N[C@H]1C(=O)N[C@@H](CC(N)=O)C(=O)N[C@H]2C(=O)N[C@H]3C(=O)N[C@H](C(=O)N[C@H](C(=O)NCC(=O)Nc4cccc(F)c4)c4cc(O)cc(O)c4-c4cc3ccc4O)[C@H](O)c3ccc(c(Cl)c3)Oc3cc2cc(c3O[C@@H]2O[C@H](CO)[C@@H](O)[C@H](O)[C@H]2O[C@H]2C[C@](C)(N)[C@H](O)[C@H](C)O2)Oc2ccc(cc2Cl)[C@H]1O [Vanc-10] | 214 ± 51 µM | > 250 µM | 238 µM | > 250 µM | MIC-fold improvement vs. vancomycin (E. faecalis VRE 37): 64; MIC (MRSA KS6): 0.78 µM (≈ 1.25 µg/mL); MIC-fold improvement vs. vancomycin (MRSA KS1): 2; MIC (MRSA KS1): 0.39 µM (≈ 0.624 µg/mL); MIC-fold improvement vs. vancomycin (MRSA KS89): 2; MIC (MRSA KS89): 0.39 µM (≈ 0.624 µg/mL); MIC-fold improvement vs. vancomycin (MRSA KS2): 2; MIC (MRSA KS2): 0.39 µM (≈ 0.624 µg/mL)
12.5 µM (≈ 20.1 µg/mL) | 8 | 6.25 µM (≈ 10.1 µg/mL) | 32 | 0.78 µM (≈ 1.26 µg/mL) | 8 | 12.5 µM (≈ 20.1 µg/mL) | 32 | 0.39 µM (≈ 0.628 µg/mL) | 4 | 12.5 µM (≈ 20.1 µg/mL) | 3.13 µM (≈ 5.04 µg/mL) | 64 | 0.78 µM (≈ 1.26 µg/mL) | 1 | 2 | CN[C@H](CC(C)C)C(=O)N[C@H]1C(=O)N[C@@H](CC(N)=O)C(=O)N[C@H]2C(=O)N[C@H]3C(=O)N[C@H](C(=O)N[C@H](C(=O)NCC(=O)Nc4cc(C)cc(C)c4)c4cc(O)cc(O)c4-c4cc3ccc4O)[C@H](O)c3ccc(c(Cl)c3)Oc3cc2cc(c3O[C@@H]2O[C@H](CO)[C@@H](O)[C@H](O)[C@H]2O[C@H]2C[C@](C)(N)[C@H](O)[C@H](C)O2)Oc2ccc(cc2Cl)[C@H]1O [Vanc-11] | 87 ± 9 µM | > 250 µM | 178 µM | 196 ± 15 µM | MIC-fold improvement vs. vancomycin (E. faecalis VRE 37): 64; MIC (MRSA KS6): 0.39 µM (≈ 0.628 µg/mL); MIC-fold improvement vs. vancomycin (MRSA KS1): 1; MIC (MRSA KS1): 0.78 µM (≈ 1.26 µg/mL); MIC-fold improvement vs. vancomycin (MRSA KS89): 2; MIC (MRSA KS89): 0.39 µM (≈ 0.628 µg/mL); MIC-fold improvement vs. vancomycin (MRSA KS2): 1; MIC (MRSA KS2): 0.78 µM (≈ 1.26 µg/mL)
